According to ChEMBL document CHEMBL3102733, “The effect of chain length and unsaturation on Mtb Dxr inhibition and antitubercular killing activity of FR900098 analogs” (Bioorg Med Chem Lett, 2014):

Tests used:
[1] = tested on: Mycobacterium tuberculosis; experiment: Antimycobacterial activity against Mycobacterium tuberculosis H37Rv assessed as growth inhibition in presence of 7H9 nutrient-rich media; type: functional
[2] = tested on: Mycobacterium tuberculosis; experiment: Antimycobacterial activity against Mycobacterium tuberculosis H37Rv assessed as growth inhibition in presence of GAST minimal media; type: functional
[3] = biological target: T1, 1-deoxy-D-xylulose 5-phosphate reductoisomerase (Mycobacterium tuberculosis, UniProt P9WNS1); experiment: Inhibition of Mycobacterium tuberculosis Dxr
T1 sequence (P9WNS1 whole entry): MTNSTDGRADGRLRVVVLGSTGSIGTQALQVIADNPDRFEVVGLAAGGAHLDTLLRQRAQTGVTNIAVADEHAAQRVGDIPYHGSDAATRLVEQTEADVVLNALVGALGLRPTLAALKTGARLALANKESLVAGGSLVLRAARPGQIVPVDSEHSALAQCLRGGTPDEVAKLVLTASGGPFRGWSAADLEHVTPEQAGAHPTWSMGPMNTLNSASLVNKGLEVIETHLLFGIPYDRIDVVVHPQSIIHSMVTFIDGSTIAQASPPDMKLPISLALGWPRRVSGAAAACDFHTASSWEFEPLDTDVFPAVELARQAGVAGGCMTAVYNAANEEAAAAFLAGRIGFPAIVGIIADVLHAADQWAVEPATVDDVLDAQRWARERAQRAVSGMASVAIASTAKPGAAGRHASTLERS

[4] = biological target: T2, 1-deoxy-D-xylulose 5-phosphate reductoisomerase (Mycobacterium tuberculosis) (UniProt P9WNS1); experiment: Inhibition of Mycobacterium tuberculosis Dxr at 100 uM
T2 sequence (whole entry): T1 sequence (P9WNS1 whole entry)

| SMILES | MIC [1] | MIC [2] | IC50 [3] | inhibition [4] |
| --- | --- | --- | --- | --- |
| CCOP(=O)(CCCCN(O)C(C)=O)OCC | > 200 µg/mL | 75 µg/mL |  |  |
| CC(=O)N(O)C/C=C/P(=O)([O-])O.[Na+] | > 200 µg/mL | 150 µg/mL | 1070 nM |  |
| CC(=O)N(O)CCCCCP(=O)([O-])O.[Na+] | > 200 µg/mL | > 200 µg/mL |  | 86% |
| CCOP(=O)(CCN(O)C(C)=O)OCC | > 500 µg/mL |  |  |  |
| CC(=O)N(O)CCCCP(=O)(OCOC(=O)C(C)(C)C)OCOC(=O)C(C)(C)C | ≥ 200 µg/mL | 150 µg/mL |  |  |
| CC(=O)N(O)C/C=C/P(=O)(OCOC(=O)C(C)(C)C)OCOC(=O)C(C)(C)C | 9.4 µg/mL | 12.5 µg/mL |  |  |
| CCOP(=O)(/C=C/CN(O)C(C)=O)OCC | > 200 µg/mL | 150 µg/mL |  |  |
| CC(=O)N(O)CCCP(=O)(O)O [FR-900098] |  |  | 2390 nM |  |
| CC(=O)N(O)CCP(=O)([O-])O.[Na+] | > 200 µg/mL | 150 µg/mL |  | 74% |
| CCOP(=O)(CCN(O)C=O)OCC | > 500 µg/mL |  |  |  |
| CCOP(=O)(CCCCCN(O)C(C)=O)OCC | > 200 µg/mL | 200 µg/mL |  |  |
| CC(=O)N(O)CCCCP(=O)([O-])O.[Na+] | > 200 µg/mL | > 200 µg/mL |  | 80% |
